Data on 23 compounds can be found in paper PMC9608490, “Design, Synthesis, Crystal Structure, In Vitro and In Silico Evaluation of New N′-Benzylidene-4-tert-butylbenzohydrazide Derivatives as Potent Urease Inhibitors” (Molecules, 2022).

This assay addresses Jack bean urease (Canavalia ensiformis, UniProt P07374). The assay is described as follows: In vitro urease inhibition assay. Format: biochemical. On the procedure: The measurement of urease inhibitory activity was carried out according to the literature method. The assay mixture containing 75 μL of Jack bean urease and 75 μL of tested compounds with various concentrations (dissolved in DMSO) was pre-incubated for 15 min on a 96-well assay plate. Acetohydroxamic acid was used as a reference. Then 75 μL of phosphate buffer at pH 6.8 containing phenol red (0.18 mmol·L^−1) and urea (400 mmol·L^−1) were added and incubated at room temperature. The reaction time required for enough ammonium carbonate to form to raise the pH phosphate buffer from 6.8 to 7.7 was measured by a microplate reader (560 nm), with the end-point being determined by the color change of the phenol-red indicator.

Sequence of Jack bean urease (P07374 whole entry, looked up): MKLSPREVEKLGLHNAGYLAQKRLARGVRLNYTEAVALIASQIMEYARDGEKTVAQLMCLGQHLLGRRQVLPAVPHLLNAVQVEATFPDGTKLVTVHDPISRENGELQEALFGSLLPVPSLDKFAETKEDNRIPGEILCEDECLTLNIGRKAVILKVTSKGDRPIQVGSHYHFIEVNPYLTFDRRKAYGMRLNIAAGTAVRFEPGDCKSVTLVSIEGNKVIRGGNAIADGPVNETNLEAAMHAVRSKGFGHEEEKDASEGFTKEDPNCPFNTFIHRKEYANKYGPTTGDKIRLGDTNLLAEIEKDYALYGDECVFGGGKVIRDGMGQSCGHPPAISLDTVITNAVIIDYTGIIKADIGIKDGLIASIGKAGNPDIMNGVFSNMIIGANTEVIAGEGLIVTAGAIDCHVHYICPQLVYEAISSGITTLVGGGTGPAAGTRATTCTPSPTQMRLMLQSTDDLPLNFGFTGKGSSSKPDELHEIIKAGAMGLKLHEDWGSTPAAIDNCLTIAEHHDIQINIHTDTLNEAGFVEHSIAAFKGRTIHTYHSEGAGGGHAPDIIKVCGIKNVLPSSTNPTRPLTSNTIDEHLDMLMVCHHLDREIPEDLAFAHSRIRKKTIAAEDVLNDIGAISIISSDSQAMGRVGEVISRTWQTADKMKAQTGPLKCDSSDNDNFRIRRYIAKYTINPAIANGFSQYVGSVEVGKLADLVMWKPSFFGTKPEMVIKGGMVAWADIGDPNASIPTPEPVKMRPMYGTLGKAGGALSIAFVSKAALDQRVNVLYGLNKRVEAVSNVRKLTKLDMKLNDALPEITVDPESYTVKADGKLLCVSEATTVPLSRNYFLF

`CC(C)(C)c1ccc(C(=O)N/N=C/c2ccccc2O)cc1` [Compound 24, 4-(t-But)-N′-(2-Hydroxybenzylidene)benzohydrazide] yielded an IC50 of 37.5 ± 12.5 µM.
The compound `COc1cccc(/C=N/NC(=O)c2ccc(C(C)(C)C)cc2)c1O` [Compound 5, 4-(t-But)-N′-(2-Hydroxy-3-methoxybenzylidene)benzohydrazide] showed an IC50 of 56.6 ± 3.18 µM.
The compound `CC(C)(C)c1ccc(C(=O)NN=Cc2cccc(O)c2)cc1` [Compound 12, 4-(Tert-butyl)-N′-(3-hydroxybenzylidene)benzohydrazide] returned an IC50 of 39.6 ± 11.5 µM.
Then `CC(C)(C)c1ccc(C(=O)NN=Cc2c3ccccc3cc3ccccc23)cc1` [Compound 6, N′-(Anthracen-9-ylmethylene)-4-(tert-butyl)benzohydrazide], with 13.3 ± 0.58 µM; and `CC(C)(C)c1ccc(C(=O)NN=Cc2ccc(O)c(O)c2)cc1` [Compound 8, N′-(3,4-Dihydroxybenzylidene)-4-tert-butylbenzohydrazide], with 80 ± 7.43 µM.
To `CC(C)(C)c1ccc(C(=O)N/N=C/c2ccc(Cl)c(O)c2Cl)cc1` [Compound 22] belongs 38.6 ± 11.5 µM; to `CCOc1ccc(C=NNC(=O)c2ccc(C(C)(C)C)cc2)c(OC)c1` [Compound 11, 4-(Tert-butyl)-N′-(4-ethoxy-2-methoxybenzylidene)benzohydrazide], 63.5 ± 2.97 µM; to `COc1ccc(C=NNC(=O)c2ccc(C(C)(C)C)cc2)c(OC)c1OC` [Compound 9, N′-(2,3,4-Trimethoxybenzylidene)-4-tert-butylbenzohydrazide], 63.5 ± 3.97 µM.
In turn, `CC(C)(C)c1ccc(C(=O)NN=Cc2cc([N+](=O)[O-])ccc2Cl)cc1` [Compound 10, 4-(Tert-butyl)-N′-(2-chloro-5-nitrobenzylidene)benzohydrazide] displayed an IC50 of 63.5 ± 3.97 µM.
Then `CC(C)(C)c1ccc(C(=O)NN=Cc2ccc(Cl)cc2Cl)cc1` [Compound 15, 4-(Tert-butyl)-N′-(2,4-dichlorobenzylidene)benzohydrazide], with 82.2 ± 7.43 µM; and `COc1cc(C=NNC(=O)c2ccc(C(C)(C)C)cc2)cc(OC)c1OC` [Compound 13, 4-(Tert-butyl)-N′-(3,4,5-trimethoxybenzylidene)benzohydrazide], with 80.9 ± 7.43 µM; and `CC(C)(C)c1ccc(C(=O)NN=Cc2cc(C(C)(C)C)c(O)c(C(C)(C)C)c2)cc1` [Compound 16, 4-(Tert-butyl)-N′-(3,5-di-tert-butyl-4-hydroxybenzylidene)benzohydrazide], with 79 ± 7.53 µM.
Then `CC(C)(C)c1ccc(C(=O)N/N=C/c2cc(C(C)(C)C)cc(C(C)(C)C)c2O)cc1` [Compound 26, 4-(t-But)-N′-(3,5-Di-tert-butyl-2-hydroxybenzylidene)benzohydrazide], with 49.5 ± 12.7 µM.
Then `COc1cc(OC)c(C=NNC(=O)c2ccc(C(C)(C)C)cc2)c(OC)c1` [Compound 21, N′-(2,4,6-Trimethoxybenzylidene)-4-tert-butylbenzohydrazide], with 71.3 ± 2.47 µM; and `COc1ccc(Br)cc1C=NNC(=O)c1ccc(C(C)(C)C)cc1` [Compound 7, N′-(5-Bromo-2-methoxybenzylidene)-4-(t-But)benzohydrazide], with 64.5 ± 3.97 µM.
In turn, `CC(C)(C)c1ccc(C(=O)N/N=C/c2ccc(O)cc2)cc1` [Compound 20, 4-(t-But)-N′-(4-Hydroxybenzylidene)benzohydrazide] yielded a 50% inhibitory concentration (IC50) of 51.4 ± 11.5 µM.
Then `COc1cc(C=NNC(=O)c2ccc(C(C)(C)C)cc2)ccc1F` [Compound 4, 4-(Tert-butyl)-N′-(4-fluoro-3-methoxybenzylidene)benzohydrazide], with 88.8 ± 7.71 µM; and `COc1ccc(/C=N/NC(=O)c2ccc(C(C)(C)C)cc2)cc1OC` [Compound 25, 4-(t-But)-N′-(3,4-Dimethoxybenzylidene)benzohydrazide], with 13.4 ± 0.33 µM.
Turning to `CC(C)(C)c1ccc(C(=O)NN=Cc2cc(Cl)cc(Cl)c2O)cc1` [Compound 17, N′-(3,5-Dichloro-2-hydroxybenzylidene)-4-tert-butylbenzohydrazide], the IC50 came out at 27.5 ± 1.65 µM.
`COc1cc(C=NNC(=O)c2ccc(C(C)(C)C)cc2)ccc1O` [Compound 23]: the IC50 was found to be 252 ± 6.82 µM.
Then `CN(C)c1ccc(C=NNC(=O)c2ccc(C(C)(C)C)cc2)cc1` [Compound 14, 4-(Tert-butyl)-N′-(4-(dimethylamino)benzylidene)benzohydrazide], with 81.2 ± 7.4 µM; and `CC(C)(C)c1ccc(C(=O)NN=Cc2ccc([N+](=O)[O-])cc2)cc1` [Compound 18, N′-(4-Nitrobenzylidene)-4-tert-butylbenzohydrazide], with 66.1 ± 1.79 µM; and `COc1cccc(OC)c1C=NNC(=O)c1ccc(C(C)(C)C)cc1` [Compound 19, 4-(Tert-butyl)-N′-(2,6-dimethoxybenzylidene)benzohydrazide], with 67.5 ± 4.16 µM.
